Patent US20250154554A1, “ANTIMICROBIAL SUSCEPTIBILITY” (priority 2022, published 2025)
Like-named read-outs stand apart in the source and are kept apart here.

Legend:
E. coli = test: MIC of strains giving very major errors (VME); assay type: cell-based
K. pneumoniae = test: MIC of strains giving very major errors (VME); assay type: cell-based; conditions: Klebsiella pneumoniae, strain EB 033, site 2, read-out: MIC
[1] = system: Gram-positive bacteria (Staphylococcus spp, Enterococcus spp); test: Reference method (RM): disk diffusion and/or broth microdilution, S/I/R classification, Gram-positive strains; assay type: cell-based; conditions: for CLSI RM R / EUCAST RM R: number of strains resistant; for CLSI RM S / EUCAST RM S: number of strains susceptible;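 on all read-outs here: susceptibility categories assigned with the latest EUCAST breakpoint tables or CLSI M100 29th edition breakpoints, with quality control of the reference methods following EUCAST and CLSI guidance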
Staphylococcus aureus = test: Vancomycin MIC by FASTgrampos kit versus broth microdilution (reference method); assay type: cell-based
[2] = system: Gram-negative bacteria (Enterobacterales, Pseudomonas, Acinetobacter); conditions: for CLSI RM I: number of strains I; for CLSI RM R / EUCAST RM R: number of strains resistant; for CLSI RM S / EUCAST RM S: number of strains susceptible
[3] = CLSI, FASTinov, Porto, spiked blood cultures
[4] = CLSI, total of 3 sites, blood cultures
[5] = EUCAST, FASTinov, Porto, spiked blood cultures
[6] = EUCAST, total of 3 sites, blood cultures
[7] = CLSI, Hospital S. João, Porto, patients' blood cultures
[8] = EUCAST, Hospital S. João, Porto, patients' blood cultures
[9] = CLSI, Hospital Ramon et Cajal, Madrid, patients blood cultures
[10] = EUCAST, Hospital Ramon et Cajal, Madrid, patients blood cultures
[11] = CLSI, FASTinov, Porto, spiked on blood cultures
[12] = CLSI, Hospital Ramon et Cajal, Madrid, patients' blood cultures
[13] = EUCAST, FASTinov, Porto, spiked on blood cultures
[14] = EUCAST, Hospital Ramon et Cajal, Madrid, patients' blood cultures

CO/N=C(\C(=O)N[C@@H]1C(=O)N2C(C(=O)[O-])=C(C[N+]3(C)CCCC3)CS[C@H]12)c1csc(N)n1 [Cefepime]
MIC (E. coli; Escherichia coli, strain EB 022, site 2, read-out: MIC): 4 µg/mL
MIC (E. coli; Escherichia coli, strain EB 052, site 2, read-out: MIC): 64 µg/mL
MIC (K. pneumoniae): 32 µg/mL

CN[C@H](CC(C)C)C(=O)N[C@H]1C(=O)N[C@@H](CC(N)=O)C(=O)N[C@H]2C(=O)N[C@H]3C(=O)N[C@H](C(=O)N[C@H](C(=O)O)c4cc(O)cc(O)c4-c4cc3ccc4O)[C@H](O)c3ccc(c(Cl)c3)Oc3cc2cc(c3O[C@@H]2O[C@H](CO)[C@@H](O)[C@H](O)[C@H]2O[C@H]2C[C@](C)(N)[C@H](O)[C@H](C)O2)Oc2ccc(cc2Cl)[C@H]1O [Vancomycin]
RM I (strains intermediate by reference method) [1, 3]: 3
RM R (strains resistant by reference method) [1, 3]: 7
RM S (strains susceptible by reference method) [1, 3]: 100
RM I (strains intermediate by reference method) [1, 4]: 3
RM R (strains resistant by reference method) [1, 4]: 8
RM S (strains susceptible by reference method) [1, 4]: 254
RM R (strains resistant by reference method) [1, 5]: 10
RM S (strains susceptible by reference method) [1, 5]: 100
RM R (strains resistant by reference method) [1, 6]: 11
RM S (strains susceptible by reference method) [1, 6]: 254
CLSI RM R [1, 7]: 1
EUCAST RM R [1, 8]: 1
CLSI RM S [1, 9]: 56
CLSI RM S [1, 7]: 98
EUCAST RM S [1, 10]: 56
EUCAST RM S [1, 8]: 98
number of S. aureus strains in MIC distribution (Staphylococcus aureus; MIC by FASTgrampos 0.25 mg/L, MIC by microdilution 0.25 mg/L): 2
number of S. aureus strains in MIC distribution (Staphylococcus aureus; MIC by FASTgrampos 0.25 mg/L, MIC by microdilution 0.5 mg/L): 15
number of S. aureus strains in MIC distribution (Staphylococcus aureus; MIC by FASTgrampos 0.5 mg/L, MIC by microdilution 0.5 mg/L): 21
number of S. aureus strains in MIC distribution (Staphylococcus aureus; MIC by FASTgrampos 0.5 mg/L, MIC by microdilution 1 mg/L): 10
number of S. aureus strains in MIC distribution (Staphylococcus aureus; MIC by FASTgrampos 1 mg/L, MIC by microdilution 0.5 mg/L): 3
number of S. aureus strains in MIC distribution (Staphylococcus aureus; MIC by FASTgrampos 1 mg/L, MIC by microdilution 1 mg/L): 7
number of S. aureus strains in MIC distribution (Staphylococcus aureus; MIC by FASTgrampos 2 mg/L, MIC by microdilution 1 mg/L): 3
number of S. aureus strains in MIC distribution (Staphylococcus aureus; MIC by FASTgrampos 2 mg/L, MIC by microdilution 2 mg/L): 2

Gentamicin
RM R (strains resistant by reference method) [1, 3]: 15
RM S (strains susceptible by reference method) [1, 3]: 51
RM R (strains resistant by reference method) [1, 4]: 54
RM S (strains susceptible by reference method) [1, 4]: 147
RM R (strains resistant by reference method) [1, 5]: 29
RM S (strains susceptible by reference method) [1, 5]: 37
RM R (strains resistant by reference method) [1, 6]: 70
RM S (strains susceptible by reference method) [1, 6]: 131
CLSI RM R [1, 9]: 15
CLSI RM R [1, 7]: 24
EUCAST RM R [1, 10]: 17
EUCAST RM R [1, 8]: 24
CLSI RM S [1, 9]: 28
CLSI RM S [1, 7]: 68
EUCAST RM S [1, 10]: 26
EUCAST RM S [1, 8]: 68
MIC (E. coli; strain EB 286, site 3): 8 µg/mL
RM I (strains intermediate by reference method) [2, 4]: 6
RM R (strains resistant by reference method) [2, 4]: 77
RM S (strains susceptible by reference method) [2, 4]: 262
RM R (strains resistant by reference method) [2, 6]: 69
RM S (strains susceptible by reference method) [2, 6]: 194
CLSI RM I [2, 11]: 3
CLSI RM I [2, 12]: 1
CLSI RM I [2, 7]: 2
CLSI RM R [2, 11]: 60
CLSI RM R [2, 12]: 9
CLSI RM R [2, 7]: 8
EUCAST RM R [2, 13]: 47
EUCAST RM R [2, 14]: 10
EUCAST RM R [2, 8]: 12
CLSI RM S [2, 11]: 120
CLSI RM S [2, 12]: 70
CLSI RM S [2, 7]: 72
EUCAST RM S [2, 13]: 64
EUCAST RM S [2, 14]: 65
EUCAST RM S [2, 8]: 65
